Here are results for one molecule from PMC6326797 (Nucleic Acids Research, 2018).

Molecules are shown by their SMILES.

The target of the experiment is T1, RNase L (Homo sapiens, UniProt Q05823).
T1 sequence (Q05823 1-741): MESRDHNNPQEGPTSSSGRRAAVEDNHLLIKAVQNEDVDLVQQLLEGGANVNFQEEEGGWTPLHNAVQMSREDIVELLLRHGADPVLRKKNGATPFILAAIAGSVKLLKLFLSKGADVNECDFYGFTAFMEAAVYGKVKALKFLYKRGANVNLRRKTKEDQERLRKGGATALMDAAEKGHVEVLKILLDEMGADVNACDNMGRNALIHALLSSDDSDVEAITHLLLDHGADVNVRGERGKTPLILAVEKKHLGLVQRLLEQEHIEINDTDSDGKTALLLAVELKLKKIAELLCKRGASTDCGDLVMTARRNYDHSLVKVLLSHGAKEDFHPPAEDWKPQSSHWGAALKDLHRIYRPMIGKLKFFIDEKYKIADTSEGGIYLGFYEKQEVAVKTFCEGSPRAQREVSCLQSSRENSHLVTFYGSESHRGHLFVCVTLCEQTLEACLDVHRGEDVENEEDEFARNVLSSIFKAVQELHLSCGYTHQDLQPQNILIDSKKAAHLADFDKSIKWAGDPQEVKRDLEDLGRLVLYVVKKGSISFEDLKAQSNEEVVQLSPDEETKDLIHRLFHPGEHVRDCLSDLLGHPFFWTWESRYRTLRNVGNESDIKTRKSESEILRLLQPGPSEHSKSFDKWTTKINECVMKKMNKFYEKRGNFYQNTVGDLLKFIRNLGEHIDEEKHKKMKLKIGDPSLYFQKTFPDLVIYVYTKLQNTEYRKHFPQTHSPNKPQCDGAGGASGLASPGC
The experiment is described as follows: FRET RNA cleavage assay. The experiment is classed as biochemical.

The molecule `COc1cc(/C=C/C(=O)CC(=O)/C=C/c2ccc(O)c(OC)c2)ccc1O` [curcumin] came in with a half-inhibitory concentration (IC50) of approximately 30 µM.
